{"source": "patent US20050020616A1", "about": "“Aryl fused azapolycyclic compounds” (Pfizer Inc, priority 2003, published 2005)", "note": "Counter-ions that a name gives are not always drawn.", "data": [{"smiles": "O=[N+]([O-])c1ccc2c(c1)C1CCC2CNC1", "note": "(stereo not shown) (as salt: hydrochloride)", "values": [{"measurement": "melting point", "result": 252, "unit": "°C"}]}]}
